Measured values taken from US20080287478A1 (priority 2003, published 2008).
Where a name gives a salt, the structure may show the parent alone. Read-outs that look alike come from different tables or passages of the source.

How the values were obtained:
Male SD/TAC rats = assay: animal or person; format: in vivo, rat; conditions: for response vs control in vivo at 3 µmol/kg / minimal effective dose / ED (max): Rattus norvegicus; for minimal effective dose: read-out: Lovest Dose at which increased diuresis is achieved nMol/kg. I.e. >1.5 SC; for ED (max): read-out: SC Dose at which max diuresis is achieved nMol/kg
male NMRI mice = conditions: mouse, in vivo, iv; for dose at which the mice died after injection / time to death after injection: male, NMRI
mice = conditions: mouse, in vivo, iv
in vivo = conditions: male, Sprague-Dawley, rat
[1] = rat, in vivo

Q: With CC(C)[C@H]1CC[C@@H](N2CCC3(CC2)C(=O)N(CCCCCCCCCN2CN(c4ccccc4)C4(CCN([C@H]5CC[C@@H](C(C)C)CC5)CC4)C2=O)CN3c2ccccc2)CC1 [Compound 25, 1,9-bis-(cis-8-(4-isopropyl-cyclohexyl)-1-phenyl-1,3,8-triaza-spiro[4.5]decan-4-one-3-yl)-nonane] as the compound, how does the response vs control in vivo at 3 µmol/kg (Male SD/TAC rats; po, read-out: PO max effect.) read?
A: 250%

Q: And the minimal effective dose (Male SD/TAC rats; sc)?
A: 0.01 µmol/kg

Q: And the ED (max) (Male SD/TAC rats; sc)?
A: 1000 nmol/kg

Q: What about the response vs control in vivo at 3 µmol/kg (Male SD/TAC rats; sc, read-out: SC max effect.) of the same compound?
A: 250%

Q: What about the “Lovest Dose at which increased diuresis is achieved nMol/kg. I.e. >1.5 IV” value (Male SD/TAC rats; rat, in vivo) of the same compound?
A: 10^−5 nMol/kg

Q: And the “Lovest Dose at which increased diuresis is achieved nMol/kg. I.e. >1.5 PO” value (Male SD/TAC rats; rat, in vivo, po)?
A: 10 nmol/kg

Q: What about the “PO Dose at which max diuresis is achieved” value (Male SD/TAC rats; rat, in vivo, po) of the same compound?
A: 1000 nmol/kg

Q: With CC(C)[C@H]1CC[C@@H](N2CCC3(CC2)C(=O)N(CCCNCCNCCNCCCNCCN)CN3c2ccccc2)CC1 [Compound 33, cis-8-(4-Isopropyl-cyclohexyl)-3-(4,7,10,14,17-pentaazaheptadecyl)-1-phenyl-1,3,8-triaza-spiro[4.5]decan-4-one] as the compound, how does the response vs control in vivo at 3 µmol/kg (Male SD/TAC rats; po, read-out: PO max effect.) read?
A: 160%

Q: And the minimal effective dose (Male SD/TAC rats; sc)?
A: 0.0001 µmol/kg

Q: What about the ED (max) (Male SD/TAC rats; sc) of the same compound?
A: 1000 nmol/kg

Q: And the response vs control in vivo at 3 µmol/kg (Male SD/TAC rats; sc, read-out: SC max effect.)?
A: 330%

Q: And the “Lovest Dose at which increased diuresis is achieved nMol/kg. I.e. >1.5 PO” value (Male SD/TAC rats; rat, in vivo, po)?
A: 1000 nmol/kg

Q: What about the “PO Dose at which max diuresis is achieved” value (Male SD/TAC rats; rat, in vivo, po) of the same compound?
A: 1000 nmol/kg

Q: With CC(C)[C@H]1CC[C@@H](N2CCC3(CC2)C(=O)N(CCCCCCNCCNCCCNCCNCCN)CN3c2ccccc2)CC1 [Compound 34, cis-8-(4-Isopropyl-cyclohexyl)-3-(7,10,14,17,20-pentaazaeicosanyl)-1-phenyl-1,3,8-triaza-spiro[4.5]decan-4-one] as the compound, how does the response vs control in vivo at 3 µmol/kg (Male SD/TAC rats; po, read-out: PO max effect.) read?
A: 200%

Q: What about the minimal effective dose (Male SD/TAC rats; sc) of the same compound?
A: 0.01 µmol/kg

Q: What about the ED (max) (Male SD/TAC rats; sc) of the same compound?
A: 100 nmol/kg

Q: What about the response vs control in vivo at 3 µmol/kg (Male SD/TAC rats; sc, read-out: SC max effect.) of the same compound?
A: 490%

Q: And the “Lovest Dose at which increased diuresis is achieved nMol/kg. I.e. >1.5 IV” value (Male SD/TAC rats; rat, in vivo)?
A: 0.0001 nmol/kg

Q: What about the “Lovest Dose at which increased diuresis is achieved nMol/kg. I.e. >1.5 PO” value (Male SD/TAC rats; rat, in vivo, po) of the same compound?
A: 0.1 nmol/kg

Q: What about the “PO Dose at which max diuresis is achieved nMol/kg” value (Male SD/TAC rats; rat, in vivo, po) of the same compound?
A: 0.1; 10 nMol/kg

Q: What about the “dose at which the mice died after injection” value (male NMRI mice) of the same compound?
A: 2000 nmol/kg

Q: What about the “time to death after injection” value (male NMRI mice) of the same compound?
A: approximately 2 minutes

Q: What about the “CNS grid shock* (Minimal effective dose nmol/kg)” value (male NMRI mice) of the same compound?
A: 300 nmol/kg

Q: What about the “gridshock response versus vehicle” value (male NMRI mice) of the same compound?
A: No statistical significant difference

Q: And the “CNS motility* (Minimal effective dose nmol/kg)” value (mice)?
A: 100 nmol/kg

Q: What about the “dose with statistical significant decrease in locomotor activity during the first 15 minutes” value (mice) of the same compound?
A: 1000 nmol/kg

Q: And the “locomotor activity / activity count during the first 30 minutes versus vehicle” value (mice)?
A: No statistical significant difference

Q: What does the source list for CC(C)[C@H]1CC[C@@H](N2CCC3(CC2)C(=O)N(CCCN2CCCNCCNCCCNCC2)CN3c2ccccc2)CC1 [Compound 36, cis-8-(4-Isopropyl-cyclohexyl)-1-phenyl-3-[3-(1,4,8,11-tetraaza-cyclotetradec-1-yl)-propyl]-1,3,8-triaza-spiro[4.5]decan-4-one]?
A: response vs control in vivo at 3 µmol/kg (Male SD/TAC rats; po, read-out: PO max effect.): 240%; Lovest Dose at which increased diuresis is achieved nMol/kg. I.e. >1.5 IV (Male SD/TAC rats; rat, in vivo): 10 nmol/kg; Lovest Dose at which increased diuresis is achieved nMol/kg. I.e. >1.5 PO (Male SD/TAC rats; rat, in vivo, po): 1000 nmol/kg; PO Dose at which max diuresis is achieved (Male SD/TAC rats; rat, in vivo, po): 1000 nmol/kg; dose at which the mice died after injection (male NMRI mice): 2000 nmol/kg; time to death after injection (male NMRI mice): approximately 1; CNS grid shock* (Minimal effective dose nmol/kg) (male NMRI mice): 1000 nmol/kg; CNS motility* (Minimal effective dose nmol/kg) (mice): 100 nmol/kg; half-life (in vivo): 120 min

Q: Which results are given for O=C(O)C(F)(F)F [TFA, Trifluoroacetic acid]?
A: gridshock response versus vehicle (male NMRI mice): No statistical significant difference; locomotor activity / activity count during the first 30 minutes versus vehicle (mice): No statistical significant difference

Q: What does the source list for “cis and trans-3-(Methoxycarbonylmethyl-)-8-(4-isopropyl-cyclohexyl)-1-phenyl-1,3,8-triaza-spiro[4.5]decan-4-one [Compound 10]”?
A: Lovest Dose at which increased diuresis is achieved nMol/kg. I.e. >1.5 SC (Male SD/TAC rats; rat, in vivo, sc): 1000 nmol/kg; SC Dose at which max diuresis is achieved (Male SD/TAC rats; rat, in vivo, sc): 1000 nmol/kg; SC max effect. (Male SD/TAC rats; rat, in vivo, sc): 1.9

Q: What does the source list for “cis-(8-(4-Isopropyl-cyclohexyl)-1-phenyl-1,3,8-triaza-spiro[4.5]decan-4-one)-acetic acid [Compound 11]”?
A: Lovest Dose at which increased diuresis is achieved nMol/kg. I.e. >1.5 IV (Male SD/TAC rats; rat, in vivo): 10 nmol/kg; Lovest Dose at which increased diuresis is achieved nMol/kg. I.e. >1.5 SC (Male SD/TAC rats; rat, in vivo, sc): 1000 nmol/kg; SC Dose at which max diuresis is achieved (Male SD/TAC rats; rat, in vivo, sc): 1000 nmol/kg; SC max effect. (Male SD/TAC rats; rat, in vivo, sc): 2.0; oral availability (in words) [1]: orally available; gridshock response versus vehicle (male NMRI mice): No statistical significant difference; CNS motility* (Minimal effective dose nmol/kg) (mice): >10000 nmol/kg; locomotor activity / activity count during the first 30 minutes versus vehicle (mice): No statistical significant difference
